# Assay results from ChEMBL document CHEMBL1201862, “PubChem BioAssay data set” (2004).
# The source made the active and inactive calls.
# Columns and labels:
# [1] = biological target: T1, Corticotropin-releasing factor receptor 2/Corticotropin-releasing factor-binding protein (Homo sapiens, UniProt P24387+Q13324); experiment: activators of CRF receptor 2 with binding protein – uHTS hits, confirmation (AID 602473); type: functional; conditions: read-out: EC50_Mean
# T1 sequence (Q13324 whole entry): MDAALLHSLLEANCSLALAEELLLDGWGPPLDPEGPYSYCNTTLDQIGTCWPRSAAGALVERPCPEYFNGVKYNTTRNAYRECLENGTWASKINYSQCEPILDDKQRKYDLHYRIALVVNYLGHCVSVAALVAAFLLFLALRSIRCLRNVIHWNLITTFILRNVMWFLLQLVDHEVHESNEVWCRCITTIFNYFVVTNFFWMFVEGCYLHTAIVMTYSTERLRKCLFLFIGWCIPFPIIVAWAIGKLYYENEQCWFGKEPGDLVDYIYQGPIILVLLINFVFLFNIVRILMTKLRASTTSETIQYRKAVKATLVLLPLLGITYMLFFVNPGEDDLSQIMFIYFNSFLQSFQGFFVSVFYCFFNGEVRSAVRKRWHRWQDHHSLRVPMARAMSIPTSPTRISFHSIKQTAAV
# T1 sequence (P24387 whole entry): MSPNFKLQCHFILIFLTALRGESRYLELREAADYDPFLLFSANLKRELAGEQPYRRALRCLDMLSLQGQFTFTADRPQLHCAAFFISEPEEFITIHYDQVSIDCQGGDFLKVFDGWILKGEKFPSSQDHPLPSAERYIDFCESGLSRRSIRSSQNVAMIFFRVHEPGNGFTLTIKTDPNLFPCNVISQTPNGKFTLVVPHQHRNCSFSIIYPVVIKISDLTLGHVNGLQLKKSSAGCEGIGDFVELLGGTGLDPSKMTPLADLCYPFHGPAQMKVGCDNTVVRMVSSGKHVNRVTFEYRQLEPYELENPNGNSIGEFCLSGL
# [2] = biological target: T1, Corticotropin-releasing factor receptor 2/Corticotropin-releasing factor-binding protein; experiment: Dose Response confirmation of uHTS hits for small molecule antagonists of the CRF-binding protein and CRF-R2 receptor complex.; type: functional; conditions: read-out: IC50_Mean
# [3] = cytotoxicity in HEK-293T cells, dose response, cytotoxicity control for BCR NF-kB inhibitor project, luminescence, B-cell screen hits (AID 489021); type: functional, cell-based;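 note: HEK-293T cells carrying an NF-kB luciferase reporter; cells exposed to compound for about 14 hours before viability readout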
# [4] = inhibitors of Vif binding to APOBEC3G peptide, primary screen, biochemical, TR-FRET, GST-Vif 1-94, biotin-A3G peptide, dose response retest (AID 1117319); type: functional;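 note: TR-FRET signal of purified GST-Vif binding a biotinylated A3G peptide; inhibitors lower the FRET signal by blocking Vif and A3G binding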
# [5] = biological target: 1-acylglycerol-3-phosphate O-acyltransferase ABHD5/Perilipin-5 (Homo sapiens, UniProt Q00G26+Q8WTS1); experiment: Luminescence-based biochemical high throughput dose response assay for inhibitors of the interaction of the lipase co-activator protein, abhydrolase domain containing 5 (ABHD5) with perilipin-5 (MLDP; PLIN5) (2K validation set). [Related pubchem assays (depositor defined):AID493035, AID493241]
# [6] = biological target: Eukaryotic translation initiation factor 4E (Mus musculus, UniProt P63073); experiment: eIF4E–eIF4G protein interaction inhibitors, dose response, biochemical, TR-FRET (AID 855); type: functional;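 note: potency for disrupting eIF4E binding to eIF4GI seen as loss of FRET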
# Perilipin-1/ABHD5 = Perilipin-1/ABHD5 (Homo sapiens, UniProt O60240+Q8WTS1); experiment: Luminescence-based biochemical high throughput dose response assay for inhibitors of the interaction of the lipase co-activator protein, abhydrolase domain containing 5 (ABHD5) with perilipin-1 (PLIN1) (2K validation set). [Related pubchem assays (depositor defined):AID493027, AID493057]
# Trypsin = Trypsin (Sus scrofa, UniProt P00761); experiment: porcine trypsin inhibitors, dose response, selectivity assay for Rce1 protease inhibitor project, biochemical, quenched peptide fluorescence, cherry-pick (AID 488789)
# CAAX prenyl protease 2 = biological target: T2, CAAX prenyl protease 2 (Saccharomyces cerevisiae S288c, UniProt Q03530); type: biochemical
# T2 sequence (Q03530 whole entry): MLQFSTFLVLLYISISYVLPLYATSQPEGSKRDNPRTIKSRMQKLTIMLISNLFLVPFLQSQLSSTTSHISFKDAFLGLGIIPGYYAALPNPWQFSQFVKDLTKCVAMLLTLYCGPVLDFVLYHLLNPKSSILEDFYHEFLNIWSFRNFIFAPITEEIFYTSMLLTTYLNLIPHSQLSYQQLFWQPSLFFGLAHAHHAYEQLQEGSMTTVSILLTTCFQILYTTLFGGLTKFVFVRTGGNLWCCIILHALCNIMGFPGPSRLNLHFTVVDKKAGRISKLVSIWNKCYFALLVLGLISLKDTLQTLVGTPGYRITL
# INS1 = experiment: beta cell apoptosis inhibitors, cytokine rescue, dose response, luminescence, retest (AID 449756); type: functional, cell-based; conditions: Rattus norvegicus;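 note: cell death triggered by IL-1 beta plus TNF-alpha plus IFN-gamma mixture; protective hits raise ATP signal compared with cytokine alone wells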
# HeLa = experiment: HeLa cell cytotoxicity, dose response, cytotoxicity control, 24 h, cherry-picked samples (AID 504726); type: functional, cell-based; conditions: Homo sapiens;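 note: potency for cytotoxicity as loss of luminescence signal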
# [7] = biological target: T3, Carboxy-terminal domain RNA polymerase II polypeptide A small phosphatase 1 (Homo sapiens, UniProt Q9GZU7); experiment: inhibitors of CTDSP1, concentration-response testing, biochemical assay, absorbance-based, actives from ultra-high-throughput screening (AID 540297); type: functional
# T3 sequence (Q9GZU7 whole entry): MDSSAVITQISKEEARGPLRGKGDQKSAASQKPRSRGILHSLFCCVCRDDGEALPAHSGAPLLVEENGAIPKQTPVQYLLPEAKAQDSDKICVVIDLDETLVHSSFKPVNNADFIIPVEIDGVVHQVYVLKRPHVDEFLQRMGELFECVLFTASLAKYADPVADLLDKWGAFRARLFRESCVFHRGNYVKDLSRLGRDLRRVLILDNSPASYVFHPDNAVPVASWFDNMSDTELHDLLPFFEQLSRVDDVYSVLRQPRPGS
# ORF 73 = biological target: T4, ORF 73 (Human herpesvirus 8, UniProt O40947); experiment: inhibitors of C-LANA binding to LBS DNA, dose response, biochemical, fluorescence polarization, cherry-picked samples (AID 504725); parameters: species or system Human gammaherpesvirus 8;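 note: fluorescence polarization of a labeled DNA duplex reporting LANA DNA binding; potency is for inhibitors that block LANA binding to the DNA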
# T4 sequence (O40947 whole entry): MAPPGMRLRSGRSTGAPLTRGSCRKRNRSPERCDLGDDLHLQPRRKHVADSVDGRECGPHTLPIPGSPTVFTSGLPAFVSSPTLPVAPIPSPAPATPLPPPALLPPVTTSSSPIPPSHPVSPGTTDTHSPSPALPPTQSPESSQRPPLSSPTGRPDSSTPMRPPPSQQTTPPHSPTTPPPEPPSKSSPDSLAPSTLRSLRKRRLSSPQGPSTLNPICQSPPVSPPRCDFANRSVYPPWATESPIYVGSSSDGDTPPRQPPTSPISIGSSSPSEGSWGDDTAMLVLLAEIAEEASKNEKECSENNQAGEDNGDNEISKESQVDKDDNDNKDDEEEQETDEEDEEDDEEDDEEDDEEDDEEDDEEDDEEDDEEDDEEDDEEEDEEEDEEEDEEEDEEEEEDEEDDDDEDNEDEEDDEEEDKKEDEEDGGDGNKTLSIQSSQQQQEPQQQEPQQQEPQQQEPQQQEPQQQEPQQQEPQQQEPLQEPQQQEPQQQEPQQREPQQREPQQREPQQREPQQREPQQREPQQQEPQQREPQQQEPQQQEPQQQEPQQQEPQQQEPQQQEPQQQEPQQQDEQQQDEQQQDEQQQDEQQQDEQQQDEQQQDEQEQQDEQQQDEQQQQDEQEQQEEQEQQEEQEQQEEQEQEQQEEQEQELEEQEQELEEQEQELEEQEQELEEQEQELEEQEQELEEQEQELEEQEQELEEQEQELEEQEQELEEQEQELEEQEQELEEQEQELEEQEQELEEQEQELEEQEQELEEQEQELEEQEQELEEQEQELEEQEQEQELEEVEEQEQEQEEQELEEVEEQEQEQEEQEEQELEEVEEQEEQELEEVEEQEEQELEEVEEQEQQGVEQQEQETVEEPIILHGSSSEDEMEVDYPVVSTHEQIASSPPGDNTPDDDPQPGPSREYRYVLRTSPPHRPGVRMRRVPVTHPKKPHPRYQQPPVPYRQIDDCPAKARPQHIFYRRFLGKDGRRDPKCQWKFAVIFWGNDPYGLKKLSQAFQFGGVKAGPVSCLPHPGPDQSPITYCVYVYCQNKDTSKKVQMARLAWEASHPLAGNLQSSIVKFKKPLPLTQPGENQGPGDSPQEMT
# Nonstructural protein 1 = Nonstructural protein 1 (Influenza A virus, UniProt Q194T2); type: functional, Influenza A virus (A/California/07/2009(H1N1))
# Genome polyprotein = Genome polyprotein (dengue virus type 2, UniProt P29990); experiment: Dengue-2 NS5 methyltransferase inhibitors, primary screen, biochemical, confirmation dose response (AID 588689); type: functional
# Caspase-6 = Caspase-6 (Homo sapiens, UniProt P55212); experiment: human caspase-6 inhibitors, dose response, biochemical, VEID-R110 fluorescence, cherry-pick (AID 720632)
# [8] = HeLa cell cytotoxicity, dose response, cytotoxicity control for MgcRacGAP inhibitor project (AID 624300); type: functional
# [9] = biological target: Intestinal-type alkaline phosphatase (Homo sapiens, UniProt P09923); experiment: Dose Response confirmation of uHTS hits from a small molecule inhibitors of human intestinal alkaline phosphatase via a luminescent assay. [Related pubchem assays (depositor defined):AID2544, AID2574]; type: functional
# [10] = inhibitors of HIV Env-driven cell fusion, dose response, cherry-pick (AID 652057); type: functional, cell-based
# [11] = inhibitors of SNCA 5'UTR-driven reporter translation, confirmation, H4 neuroglioma cells, luminescence (AID 1988); type: functional, cell-based
# [12] = ZM109 Env clade C HIV-1 fusion inhibitors, dose response, HeLa effector, CEM target cells, luciferase, cherry-pick (AID 652058); type: functional, cell-based
# [13] = inhibitors of clade B AD8 Env fusion, dose response, cell-based, cherry-pick (AID 652062); type: functional;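 note: luciferase signal from cell-cell fusion driven by HIV-1 clade B AD8 Env; potency is for inhibitors of fusion seen as a drop in luminescence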
# [14] = biological target: Glucose-6-phosphate 1-dehydrogenase (Homo sapiens, UniProt P11413); experiment: human G6PD enzyme inhibitors, dose response, selectivity assay for P. falciparum G6PD inhibitor project, biochemical, fluorescence (AID 504792); type: functional
# [15] = off-target signal loss in HeLa-CEM21 co-culture – HeLa F-luc CTL cells, cherry-picked, counter-screen for HIV-1 Env fusion inhibitor project, dose response (AID 652040); type: functional, cell-based;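 note: potency for signal decrease marking cytotoxic or nonspecific inhibition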
# [16] = Luminescence Cell-Based Dose Response HTS to Identify Inhibitors of 5'UTR Stem-Loop Driven Prion Protein mRNA Translation in H4 Neuroglioblastoma Cells. [Related pubchem assays: 1827 (Project Summary), 1813 (Primary HTS)]; type: functional
# [17] = biological target: Melanin-concentrating hormone receptor 1 (Homo sapiens, UniProt Q99705); experiment: Late-stage fluorescence-based counterscreen for antagonists of the G-protein coupled receptor 7 (GPR7): cell-based dose response assay to identify antagonists of the melanin-concentrating hormone receptor 1 (MCHR1). [Related pubchem assays (depositor defined):AID1861, AID1880, AID1952, AID2148, AID2251, AID2257, AID485339]; type: functional;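 note: stimulated with 30 nM MCH peptide agonist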
# [18] = biological target: C-C chemokine receptor type 6 (Homo sapiens, UniProt P51684); experiment: CCR6 receptor antagonists, dose response, cell-based, luminescent beta-arrestin readout (AID 504728); type: functional
# Beta-galactosidase = Beta-galactosidase (Escherichia coli, UniProt Q8VNN2); experiment: beta-galactosidase enzyme inhibitors and activators, dose response, artefact control for CCR6 antagonist project, biochemical, E. coli enzyme, set 3 (AID 504712); type: functional
# Vero = experiment: cells; type: functional; conditions: Chlorocebus sabaeus
# [19] = biological target: T5, Tyrosine-protein phosphatase non-receptor type 7 (Homo sapiens, UniProt P35236); experiment: redox-dependent HePTP inhibition, mechanism study, biochemical, fluorescence (AID 2068); type: functional
# T5 sequence (P35236 whole entry): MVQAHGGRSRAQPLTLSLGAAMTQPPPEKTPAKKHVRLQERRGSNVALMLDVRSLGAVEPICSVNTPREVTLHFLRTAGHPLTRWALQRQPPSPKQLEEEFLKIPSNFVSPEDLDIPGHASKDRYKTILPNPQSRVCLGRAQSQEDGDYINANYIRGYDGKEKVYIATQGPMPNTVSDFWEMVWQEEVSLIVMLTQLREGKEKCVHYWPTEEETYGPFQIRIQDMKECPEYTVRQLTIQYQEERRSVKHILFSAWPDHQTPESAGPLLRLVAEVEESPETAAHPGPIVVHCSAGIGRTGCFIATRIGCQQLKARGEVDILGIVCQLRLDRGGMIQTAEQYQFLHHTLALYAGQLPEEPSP
# Chain of 1-acylglycerol-3-phosphate O-acyltransferase ABHD5/Perilipin-5 (Q00G26 whole entry, the tested form may be a part): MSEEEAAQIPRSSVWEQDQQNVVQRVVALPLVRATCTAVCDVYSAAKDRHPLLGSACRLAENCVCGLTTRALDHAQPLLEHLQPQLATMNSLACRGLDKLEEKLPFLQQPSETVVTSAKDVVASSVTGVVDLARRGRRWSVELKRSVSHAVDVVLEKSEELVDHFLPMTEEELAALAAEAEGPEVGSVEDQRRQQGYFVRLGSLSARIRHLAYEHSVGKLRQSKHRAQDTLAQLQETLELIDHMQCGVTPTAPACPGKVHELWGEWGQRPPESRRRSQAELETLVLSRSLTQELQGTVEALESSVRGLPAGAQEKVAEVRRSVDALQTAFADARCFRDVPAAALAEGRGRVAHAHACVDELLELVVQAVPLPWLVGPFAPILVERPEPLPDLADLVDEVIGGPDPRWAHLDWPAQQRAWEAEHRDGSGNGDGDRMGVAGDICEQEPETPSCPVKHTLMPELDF
# Chain of 1-acylglycerol-3-phosphate O-acyltransferase ABHD5/Perilipin-5 (Q8WTS1 whole entry, the tested form may be a part): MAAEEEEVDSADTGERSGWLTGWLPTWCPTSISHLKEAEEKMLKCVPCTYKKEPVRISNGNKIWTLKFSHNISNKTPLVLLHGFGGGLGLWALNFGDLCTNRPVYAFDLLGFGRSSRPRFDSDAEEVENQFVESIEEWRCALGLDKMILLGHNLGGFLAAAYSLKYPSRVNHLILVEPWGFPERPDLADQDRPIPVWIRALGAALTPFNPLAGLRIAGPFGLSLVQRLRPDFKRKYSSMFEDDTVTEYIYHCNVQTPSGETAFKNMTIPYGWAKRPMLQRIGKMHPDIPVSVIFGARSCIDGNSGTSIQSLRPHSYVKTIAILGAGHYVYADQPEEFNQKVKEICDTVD
# Chain of Perilipin-1/ABHD5 (Q8WTS1 whole entry, the tested form may be a part): as above
# Chain of Perilipin-1/ABHD5 (O60240 whole entry, the tested form may be a part): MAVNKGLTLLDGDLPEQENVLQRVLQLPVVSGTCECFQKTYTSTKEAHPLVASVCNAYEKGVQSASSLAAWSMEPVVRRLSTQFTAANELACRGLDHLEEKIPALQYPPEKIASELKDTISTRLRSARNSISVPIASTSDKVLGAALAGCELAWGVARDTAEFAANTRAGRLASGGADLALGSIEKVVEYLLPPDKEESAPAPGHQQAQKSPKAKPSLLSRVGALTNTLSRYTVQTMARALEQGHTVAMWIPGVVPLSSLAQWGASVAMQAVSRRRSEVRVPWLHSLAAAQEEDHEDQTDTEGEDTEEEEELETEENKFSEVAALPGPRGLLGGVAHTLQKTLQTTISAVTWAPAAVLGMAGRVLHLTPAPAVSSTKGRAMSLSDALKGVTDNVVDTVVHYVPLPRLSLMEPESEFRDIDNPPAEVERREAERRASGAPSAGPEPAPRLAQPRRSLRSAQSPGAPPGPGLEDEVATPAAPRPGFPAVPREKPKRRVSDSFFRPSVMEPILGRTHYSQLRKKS
# Chain of Nonstructural protein 1 (Q194T2 whole entry): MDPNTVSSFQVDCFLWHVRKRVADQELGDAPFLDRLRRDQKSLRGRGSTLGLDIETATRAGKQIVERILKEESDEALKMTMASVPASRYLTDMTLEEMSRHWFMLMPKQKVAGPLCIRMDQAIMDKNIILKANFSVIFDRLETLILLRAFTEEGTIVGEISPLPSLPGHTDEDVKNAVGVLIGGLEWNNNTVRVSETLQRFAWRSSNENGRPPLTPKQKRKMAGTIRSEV
# Chain of Glucose-6-phosphate 1-dehydrogenase (P11413 whole entry, the tested form may be a part): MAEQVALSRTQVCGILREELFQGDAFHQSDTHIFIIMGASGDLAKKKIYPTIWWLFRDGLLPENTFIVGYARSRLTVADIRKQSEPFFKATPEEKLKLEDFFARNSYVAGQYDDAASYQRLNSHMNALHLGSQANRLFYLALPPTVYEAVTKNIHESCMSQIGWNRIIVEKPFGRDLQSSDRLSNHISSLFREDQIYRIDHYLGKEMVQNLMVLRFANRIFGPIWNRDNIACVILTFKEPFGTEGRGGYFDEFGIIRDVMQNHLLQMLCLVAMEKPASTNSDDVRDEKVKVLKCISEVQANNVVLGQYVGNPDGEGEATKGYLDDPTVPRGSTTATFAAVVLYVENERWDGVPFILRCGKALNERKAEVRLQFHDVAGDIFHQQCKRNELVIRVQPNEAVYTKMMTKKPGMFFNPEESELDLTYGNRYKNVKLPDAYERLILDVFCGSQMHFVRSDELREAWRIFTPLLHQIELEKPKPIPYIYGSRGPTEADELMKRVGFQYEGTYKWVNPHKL
# Chain of Eukaryotic translation initiation factor 4E (P63073 whole entry, the tested form may be a part): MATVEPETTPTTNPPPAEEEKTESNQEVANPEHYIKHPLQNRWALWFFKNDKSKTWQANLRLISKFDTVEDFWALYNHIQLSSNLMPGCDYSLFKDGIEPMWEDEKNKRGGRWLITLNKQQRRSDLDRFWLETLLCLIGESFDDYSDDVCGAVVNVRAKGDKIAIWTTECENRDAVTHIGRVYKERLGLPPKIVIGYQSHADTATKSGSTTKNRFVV
# Chain of Caspase-6 (P55212 24-179 limits assumed): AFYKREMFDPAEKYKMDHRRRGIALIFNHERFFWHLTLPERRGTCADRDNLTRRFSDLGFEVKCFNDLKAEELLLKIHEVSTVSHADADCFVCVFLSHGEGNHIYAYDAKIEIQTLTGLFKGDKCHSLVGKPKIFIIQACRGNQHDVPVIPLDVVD
# Chain of Caspase-6 (P55212 194-293 limits assumed): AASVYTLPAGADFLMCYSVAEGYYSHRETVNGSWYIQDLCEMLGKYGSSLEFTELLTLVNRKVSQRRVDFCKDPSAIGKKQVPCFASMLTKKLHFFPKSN
# Chain of Beta-galactosidase (Q8VNN2 whole entry): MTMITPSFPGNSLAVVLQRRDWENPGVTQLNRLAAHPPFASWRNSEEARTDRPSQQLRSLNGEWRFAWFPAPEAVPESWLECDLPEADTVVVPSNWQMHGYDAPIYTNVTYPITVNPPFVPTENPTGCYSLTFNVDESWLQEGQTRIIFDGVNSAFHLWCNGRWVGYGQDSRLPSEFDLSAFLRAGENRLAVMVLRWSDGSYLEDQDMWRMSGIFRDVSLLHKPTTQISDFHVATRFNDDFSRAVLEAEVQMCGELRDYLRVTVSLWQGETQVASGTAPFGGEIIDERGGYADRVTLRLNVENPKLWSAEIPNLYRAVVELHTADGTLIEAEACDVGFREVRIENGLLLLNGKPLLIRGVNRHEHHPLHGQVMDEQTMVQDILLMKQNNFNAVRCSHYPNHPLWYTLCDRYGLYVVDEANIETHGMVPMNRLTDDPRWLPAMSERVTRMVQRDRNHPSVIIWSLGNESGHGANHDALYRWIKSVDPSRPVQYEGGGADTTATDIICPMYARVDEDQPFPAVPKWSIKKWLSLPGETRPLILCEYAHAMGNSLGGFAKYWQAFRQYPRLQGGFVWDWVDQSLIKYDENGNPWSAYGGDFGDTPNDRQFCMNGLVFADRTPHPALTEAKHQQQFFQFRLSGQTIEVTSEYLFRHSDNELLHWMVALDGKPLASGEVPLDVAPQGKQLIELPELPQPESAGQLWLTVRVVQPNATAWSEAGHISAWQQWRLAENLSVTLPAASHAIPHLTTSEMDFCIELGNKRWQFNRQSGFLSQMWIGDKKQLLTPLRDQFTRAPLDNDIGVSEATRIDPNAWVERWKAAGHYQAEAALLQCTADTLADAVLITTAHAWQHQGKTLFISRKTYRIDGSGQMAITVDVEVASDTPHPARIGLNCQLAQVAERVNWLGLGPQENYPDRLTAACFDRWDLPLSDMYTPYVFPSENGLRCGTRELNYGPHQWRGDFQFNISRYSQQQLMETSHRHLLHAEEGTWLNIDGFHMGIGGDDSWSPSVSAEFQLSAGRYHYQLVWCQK
# Chain of C-C chemokine receptor type 6 (P51684 whole entry): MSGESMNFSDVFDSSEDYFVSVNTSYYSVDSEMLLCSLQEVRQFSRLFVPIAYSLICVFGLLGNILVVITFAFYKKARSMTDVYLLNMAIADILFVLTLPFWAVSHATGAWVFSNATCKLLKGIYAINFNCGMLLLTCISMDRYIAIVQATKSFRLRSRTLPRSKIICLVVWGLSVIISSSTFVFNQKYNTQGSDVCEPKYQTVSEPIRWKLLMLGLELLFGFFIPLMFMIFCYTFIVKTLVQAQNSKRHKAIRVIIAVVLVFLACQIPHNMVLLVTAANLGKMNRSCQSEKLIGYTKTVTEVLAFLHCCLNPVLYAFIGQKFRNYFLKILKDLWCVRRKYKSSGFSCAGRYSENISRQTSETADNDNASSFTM
# Chain of Melanin-concentrating hormone receptor 1 (Q99705 whole entry): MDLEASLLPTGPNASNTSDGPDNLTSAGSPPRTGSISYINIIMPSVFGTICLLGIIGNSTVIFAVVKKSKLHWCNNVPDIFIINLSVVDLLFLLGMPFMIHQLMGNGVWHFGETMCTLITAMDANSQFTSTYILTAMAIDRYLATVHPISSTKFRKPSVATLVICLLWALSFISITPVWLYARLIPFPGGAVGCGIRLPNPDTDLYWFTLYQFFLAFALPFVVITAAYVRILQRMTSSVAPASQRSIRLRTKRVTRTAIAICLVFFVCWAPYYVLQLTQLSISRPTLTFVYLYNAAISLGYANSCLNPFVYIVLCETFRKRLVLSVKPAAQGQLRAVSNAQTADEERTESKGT
# Chain of Trypsin (P00761 whole entry): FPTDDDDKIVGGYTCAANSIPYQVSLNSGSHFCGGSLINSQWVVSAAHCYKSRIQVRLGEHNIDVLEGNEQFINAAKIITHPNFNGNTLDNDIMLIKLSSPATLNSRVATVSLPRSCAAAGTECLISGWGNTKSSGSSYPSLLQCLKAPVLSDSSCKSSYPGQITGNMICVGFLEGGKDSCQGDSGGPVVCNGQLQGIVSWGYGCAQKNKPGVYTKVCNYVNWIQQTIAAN
structure (smiles),measurement,setting,value
COc1ccc(OC)c(NC(=O)c2[nH]c(C)c(C(C)=O)c2C)c1,EC50,[1],> 53 µM (inactive)
same,IC50,[2],> 47.1 µM (inactive)
same,IC50,[3],> 80 µM (inactive)
same,IC50,[4],> 100 µM (active)
COc1cc(/C=C(\C#N)C(=O)N2CCc3ccccc32)ccc1O,IC50,[5],> 26.5 µM (inactive)
same,IC50,[6],50 µM (inactive)
same,IC50,Perilipin-1/ABHD5,21.4 µM (inactive)
COc1ccc(-c2c[n+]3c4n2CCCCC4=C(c2ccc(Br)cc2)C3)cc1,AC50,Trypsin,3.58 µM (active)
same,AC50,CAAX prenyl protease 2,1.87 µM (active)
same,AC50,INS1,2.88 µM (active)
O=C(O)Cc1ccc(N=Nc2c(O)c(C(=O)O)cc3ccccc23)cc1,AC50,HeLa,303 µM (active)
same,IC50,[7],3.6 µM (active)
same,AC50,ORF 73,33.6 µM (active)
same,IC50,Nonstructural protein 1,46 µM (active)
same,IC50,Genome polyprotein,68.1 µM (active)
same,AC50,Caspase-6,7.16 µM (active)
CC(=O)Nc1cccc(-c2csc(Nc3ccccn3)n2)c1,CC50,[8],94.2 µM (active)
same,IC50,[9],> 100 µM (inactive)
OCCN1CCN(C(=S)c2ccc(-c3ccccc3)cc2)CC1,AC50,[10],4.04 µM (active)
same,EC50,[11],9.34 µM (active)
same,AC50,[12],3.74 µM (active)
same,AC50,[13],1.64 µM (active)
same,IC50,[14],> 80 µM (inactive)
same,IC50,[3],> 80 µM (inactive)
same,AC50,[15],5.39 µM (active)
same,EC50,[16],12.1 µM (active)
CCOc1ccc(Oc2c(Cl)cnn(-c3ccc(C)cc3)c2=O)cc1,IC50,[17],11 µM (inactive)
COC(=O)c1ccccc1/N=C1\C=C(NS(=O)(=O)c2cccs2)c2ccccc2C1=O,IC50,[18],> 66.6 µM (inactive)
same,IC50,Beta-galactosidase,> 66.6 µM (inactive)
same,IC50,Nonstructural protein 1,4.03 µM (active)
same,IC50,[14],> 80 µM (inactive)
same,CC50,Vero,13.6 µM (active)
O=C(NCc1ccccc1)Nc1ccc2nc(-c3ccco3)c(-c3ccco3)nc2c1,IC50,[19],1.54 µM (active)
O=C(/C=C/c1ccccc1)c1ccccc1 [CHALCONE],IC50,[5],4.25 µM (active)
same,IC50,Perilipin-1/ABHD5,4.19 µM (active)
